Test systems include A549 NSCLC; ACHN renal; CCRF-CEM leukemia; HOP-92 NSCLC; HS 578T breast; IGROV1 ovarian; MCF7 breast; NCI/ADR-RES ovarian; OVCAR-4 ovarian; SK-OV-3 ovarian.
Test in all cases: growth of human tumour cells (NCI), 48 h

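In this assay, cells in 96-well plates receive the compound at five concentrations for 48 hours. Endpoints are linearly interpolated between the surrounding concentrations. GI50 = concentration required for 50% inhibition of growth. TGI denotes the concentration required for complete inhibition of growth.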

In the case of `O=C1C(Cl)=C(Nc2ccccc2O)C(=O)N1Cc1ccccc1`, the GI50 with A549 NSCLC was 20.3 µM; in the assay on ACHN renal, 20.6 µM; in the assay on CCRF-CEM leukemia it was 14.5 µM; in the assay on HOP-92 NSCLC it was 21.4 µM; with HS 578T breast, 17.3 µM; in the assay with IGROV1 ovarian, 29.7 µM. Further, the GI50 with MCF7 breast is 24.5 µM; with NCI/ADR-RES ovarian it was 24.6 µM; in the assay on OVCAR-4 ovarian, 43.1 µM; in the assay on SK-OV-3 ovarian, 28.5 µM. Moreover, the TGI is 46 µM in the assay with A549 NSCLC; 55.8 µM in the assay on ACHN renal; 32.7 µM with CCRF-CEM leukemia; 48.3 µM in the assay with HOP-92 NSCLC; 38.1 µM in the assay on HS 578T breast; greater than 100 µM in the assay with IGROV1 ovarian. The TGI was 64.6 µM with MCF7 breast, 57.1 µM with NCI/ADR-RES ovarian, greater than 100 µM in the assay with OVCAR-4 ovarian and 71.9 µM in the assay with SK-OV-3 ovarian.
For the compound `O=C(OCC(OC(=O)c1ccccc1)C(OC(=O)c1ccccc1)C(OC(=O)c1ccccc1)c1cnn(-c2ccccc2)n1)c1ccccc1` (stereo not drawn), the TGI in the assay on A549 NSCLC, with ACHN renal, with CCRF-CEM leukemia, with HOP-92 NSCLC, in the assay on HS 578T breast and with IGROV1 ovarian was greater than 100 µM throughout. The TGI in the assay on MCF7 breast, in the assay with NCI/ADR-RES ovarian, in the assay on OVCAR-4 ovarian and with SK-OV-3 ovarian was greater than 100 µM in each case.
Regarding `CCOC(CN(C)C(=S)Nc1cccc2ccccc12)OCC`, the TGI in the assay on A549 NSCLC, in the assay with ACHN renal, with CCRF-CEM leukemia, in the assay with HOP-92 NSCLC, in the assay on HS 578T breast and with IGROV1 ovarian was greater than 10 µM in each case. Moreover, the TGI in the assay on MCF7 breast, with NCI/ADR-RES ovarian, in the assay on OVCAR-4 ovarian and in the assay on SK-OV-3 ovarian was greater than 10 µM throughout.
As to `CC[C@@]1(O)C(=O)OCc2c1cc1n(c2=O)Cc2c-1nc1cc(F)c(C)c3c1c2[C@@H](N)CC3`, the GI50 in the assay with A549 NSCLC is less than 0.01 µM; in the assay with ACHN renal it was less than 0.01 µM; with CCRF-CEM leukemia it was less than 0.01 µM; in the assay with HOP-92 NSCLC it was less than 0.01 µM; with HS 578T breast it was 0.735 µM; in the assay on IGROV1 ovarian it was 0.0162 µM. For the same compound, the GI50 with MCF7 breast is less than 0.01 µM; with NCI/ADR-RES ovarian, less than 0.01 µM; with OVCAR-4 ovarian, 0.0656 µM; with SK-OV-3 ovarian, less than 0.01 µM. For the same compound, the TGI in the assay with A549 NSCLC was 1.15 µM; in the assay with ACHN renal, 0.026 µM; in the assay with CCRF-CEM leukemia, greater than 100 µM; with HOP-92 NSCLC, 0.307 µM; in the assay on HS 578T breast it was greater than 100 µM; with IGROV1 ovarian, 1.59 µM. In addition, the TGI is greater than 100 µM in the assay on MCF7 breast, greater than 100 µM with NCI/ADR-RES ovarian, greater than 100 µM with OVCAR-4 ovarian and 1.41 µM with SK-OV-3 ovarian.
Regarding `COc1ccc(Cc2cnc(NC(=O)c3ccc4c(c3)OCCO4)s2)cc1`, the GI50 was 0.044 µM with A549 NSCLC; 0.0553 µM in the assay with ACHN renal; 0.0388 µM with CCRF-CEM leukemia; 3.62 µM with HOP-92 NSCLC; 0.0311 µM in the assay on HS 578T breast; 0.0485 µM in the assay on IGROV1 ovarian. The GI50 in the assay on MCF7 breast is 0.0307 µM; in the assay on NCI/ADR-RES ovarian, 0.024 µM; in the assay with OVCAR-4 ovarian it was 0.0836 µM; in the assay with SK-OV-3 ovarian, 0.0321 µM. Moreover, the TGI with A549 NSCLC was greater than 100 µM; in the assay with ACHN renal it was greater than 100 µM; in the assay with CCRF-CEM leukemia it was greater than 100 µM; in the assay with HOP-92 NSCLC, greater than 76.6 µM; with HS 578T breast it was greater than 76 µM; in the assay on IGROV1 ovarian it was greater than 55.2 µM. The TGI in the assay on MCF7 breast, in the assay with NCI/ADR-RES ovarian, in the assay on OVCAR-4 ovarian and with SK-OV-3 ovarian was greater than 100 µM throughout.
On to `Cn1c(=O)c2c(ncn2CC(=O)Nc2ccc(-c3ccccc3)nn2)n(C)c1=O`, for which the GI50 with A549 NSCLC, in the assay with ACHN renal, with CCRF-CEM leukemia, in the assay with HOP-92 NSCLC, in the assay on HS 578T breast and in the assay with IGROV1 ovarian was greater than 100 µM in each case. In addition, the GI50 in the assay with MCF7 breast, in the assay with NCI/ADR-RES ovarian, with OVCAR-4 ovarian and in the assay on SK-OV-3 ovarian was greater than 100 µM throughout. In addition, the TGI in the assay on A549 NSCLC, in the assay on ACHN renal, in the assay on CCRF-CEM leukemia, in the assay on HOP-92 NSCLC, in the assay on HS 578T breast and with IGROV1 ovarian was greater than 100 µM each time. Also, the TGI in the assay on MCF7 breast, with NCI/ADR-RES ovarian, in the assay with OVCAR-4 ovarian and in the assay on SK-OV-3 ovarian was greater than 100 µM each time.
As for `CC/C=C/C/C=C/C/C=C/C/C=C/C/C=C/C/C=C/CCC(=O)Nc1ccn([C@@H]2O[C@H](CO)[C@@H](O)C2(F)F)c(=O)n1`, the GI50 was 0.0369 µM with A549 NSCLC; less than 0.0132 µM in the assay with ACHN renal; 0.0537 µM in the assay on CCRF-CEM leukemia; 0.652 µM in the assay on HOP-92 NSCLC; 46.4 µM in the assay with HS 578T breast; 4.07 µM in the assay with IGROV1 ovarian. Also, the GI50 in the assay on NCI/ADR-RES ovarian was 0.0386 µM; in the assay with OVCAR-4 ovarian, 17.5 µM; with SK-OV-3 ovarian it was 0.14 µM. Moreover, the TGI is 20.4 µM with A549 NSCLC; 14.6 µM in the assay on ACHN renal; 15.1 µM in the assay on CCRF-CEM leukemia; 30.5 µM with HOP-92 NSCLC; greater than 76.9 µM with HS 578T breast; 30.7 µM in the assay with IGROV1 ovarian. For the same compound, the TGI in the assay on MCF7 breast is 17.2 µM; in the assay on NCI/ADR-RES ovarian, 16.9 µM; with OVCAR-4 ovarian it was 65.5 µM; with SK-OV-3 ovarian, greater than 52.2 µM.
Take `O=C(N/N=C/c1c(Cl)cccc1Cl)c1ccc(C(F)(F)F)nc1Nc1cccc(C(F)(F)F)c1`: the GI50 is 1.54 µM in the assay with A549 NSCLC; 1.26 µM in the assay with ACHN renal; 0.34 µM in the assay on CCRF-CEM leukemia; 0.293 µM in the assay with HOP-92 NSCLC; 1.75 µM in the assay on HS 578T breast; 1.01 µM in the assay on IGROV1 ovarian. The GI50 with MCF7 breast was 1.03 µM; in the assay on NCI/ADR-RES ovarian, 0.616 µM; with OVCAR-4 ovarian, 0.466 µM; in the assay on SK-OV-3 ovarian, 1.69 µM. For the same compound, the TGI with A549 NSCLC is greater than 36.1 µM; with ACHN renal it was 11.3 µM; in the assay on CCRF-CEM leukemia, 8.98 µM; in the assay with HOP-92 NSCLC, 3 µM; in the assay on HS 578T breast, 18 µM; in the assay on IGROV1 ovarian it was 13.9 µM. Moreover, the results for the TGI in the assay on MCF7 breast, in the assay with OVCAR-4 ovarian and in the assay with SK-OV-3 ovarian were greater than 35.8 µM, greater than 100 µM and 6.3 µM, respectively.

Values taken from PubChem BioAssay (NCI).
